Measured values taken from US3957978A, “Phosphonium anti-parasitics” (American Cyanamid Company, priority 1975, dated 1976).
Read-outs that look alike come from different tables or passages of the source.

Tested on: Nematospiroides dubius
Assay: Evaluation (Efficacy) Test in Mice, Nematospiroides dubius
Assay type: in vivo
Conditions: for inhibition in vivo at 0.05 %: 0.05 % diet; for inhibition in vivo at 0.1 %: 0.1 % diet; for inhibition in vivo at 0.003 %: 0.003 % diet
Description: The primary target parasite of this test is Nematospiroides dubius (Family: Heligmosomidae), which is phylogenetically related to certain economically important parasites of domestic and farm animals. Mice are orally inoculated with 20 to 30 infective N. dubius larvae. Mixed infections are obtained by subsequent inoculation with Aspicularis tetraptera and Hymenolepis nana. Eighteen days after inoculation the mice are divided into groups of four. Each group receives one compound at a specified dose rate, either as a single gavage dose or fed continually in the feed. Four groups of five mice each are utilized as infected, untreated controls. […] Those mice receiving single oral doses (SOD) or a single subcutaneous injection (Sc) of 5 mg./kg. to 100 mg./kg. of animal body weight of the compound under test are treated 22 days after inoculation. Eight days after start of treatment (drug diet) and 4 days post treatment (single dose SOD or Sc), the mice are necropsied, the worms recovered and counted. Percent efficacy for Nematospiroides is calculated using the formula: % Efficacy Equals [formula]
The diet used in the test procedures is a standard commercial mouse chow containing meat and bone meal, dried skimmed milk, wheat germ meal, fish meal, animal liver meal, dried beet pulp, ground extended corn, oat middlings, soybean meal, dehydrated alfalfa meal, cane molasses. animal fat preserved with BHA, vitamin B-12 supplement, calcium panthotenate, choline chloride, folic acid, riboflavin supplement, brewer's dried yeast, thiamine, niacin, vitamin A supplement, D activated plant sterol, vitamin E supplement, dicalcium phosphate, iodized salt, ferric ammonium citrate, iron oxide, manganous oxide, cobalt carbonate, copper oxide and zinc oxide; and the desired level of test compound.
When the drug is administered as a single oral dose, the drug is weighed and suspended in 0.2% agar, thoroughly mixed and orally introduced at the required volume.

[1] = Heligmosomoides polygyrus, po, 168 h, drug diet, 0.006 % diet, 7 days, read-out: % Efficacy N.d.
[2] = Heligmosomoides polygyrus, po, 168 h, drug diet, 0.0125 % diet, 7 days, read-out: % Efficacy N.d.
[3] = Heligmosomoides polygyrus, po, 168 h, drug diet, 0.025 % diet, 7 days, read-out: % Efficacy N.d.
[4] = Heligmosomoides polygyrus, po, single oral dose, 10 mg/kg, read-out: % Efficacy N.d.
[5] = Heligmosomoides polygyrus, po, single oral dose, 25 mg/kg, read-out: % Efficacy N.d.
[6] = Heligmosomoides polygyrus, po, single oral dose, read-out: % Efficacy N.d.
[7] = Heligmosomoides polygyrus, po, 168 h, drug diet, 7 days, read-out: % Efficacy N.d.
[8] = drug diet, 0.006 % diet, 7 days
[9] = drug diet, 0.0125 % diet, 7 days
[10] = Heligmosomoides polygyrus, po, single oral dose, 5 mg/kg, read-out: % Efficacy N.d.
[11] = Heligmosomoides polygyrus, sc, subcutaneous, 10 mg/kg, read-out: % Efficacy N.d.
[12] = Heligmosomoides polygyrus, sc, subcutaneous, 25 mg/kg, read-out: % Efficacy N.d.

| SMILES | inhibition in vivo at 0.0125 % [2] | inhibition in vivo at 0.025 % [3] | inhibition in vivo at 25 mg/kg [5] | inhibition in vivo at 50 mg/kg [6] | inhibition in vivo at 0.05 % [7] | inhibition in vivo at 100 mg/kg [6] | other results |
| --- | --- | --- | --- | --- | --- | --- | --- |
| CCC(=P(c1ccccc1)(c1ccccc1)c1ccccc1)[P+](c1ccccc1)(c1ccccc1)c1ccccc1 [Type II, R2 Ethyl, X I] | 74% | 100% | 75% | 85% | – | – | inhibition in vivo at 0.006 % [1]: 46%; inhibition in vivo at 10 mg/kg [4]: 68% |
| CSCC(=P(c1ccccc1)(c1ccccc1)c1ccccc1)[P+](c1ccccc1)(c1ccccc1)c1ccccc1 [Type II, R2 CH3 --S--CH2 --, X Cl, [2-(methylthio)-1-(triphenylphosphoranylidene)-ethyl]triphenylphosphonium Chloride] | – | 56% | – | – | 65% | – | inhibition in vivo at 0.1 % [7]: 97% |
| C(=P(c1ccccc1)(c1ccccc1)c1ccccc1)[P+](c1ccccc1)(c1ccccc1)c1ccccc1 [Type II, R1 Phenyl, X 2,6-Diiodo-4-nitrophenol] [Triphenyl[(triphenylphosphoranylidene)methyl]-phosphonium-2,6-diiodo-4-nitrophenolate] | – | – | – | – | – | – | % Efficacy N.d. [8]: 41%; % Efficacy N.d. [9]: 86.5%; % Efficacy N.d. (drug diet, 0.025 % diet, 7 days): 99.5%; % Efficacy N.d. (single oral dose, 5 mg/kg, dosage weight is that of the cation): 36.7%; % Efficacy N.d. (single oral dose, 10 mg/kg, dosage weight is that of the cation): 44.7%; % Efficacy N.d. (single oral dose, 25 mg/kg, dosage weight is that of the cation): 88.5% |
| CCCC(=P(c1ccccc1)(c1ccccc1)c1ccccc1)[P+](c1ccccc1)(c1ccccc1)c1ccccc1 [Type II, R2 n-Propyl, X I] | 88% | 100% | 63% | 100% | – | – | inhibition in vivo at 0.003 % [7]: 50%; inhibition in vivo at 0.006 % [1]: 86%; inhibition in vivo at 10 mg/kg [4]: 42% |
| COc1cccc(CC(=P(c2ccccc2)(c2ccccc2)c2ccccc2)[P+](c2ccccc2)(c2ccccc2)c2ccccc2)c1 [Type II, R2 m-methoxybenzyl, X Cl] | 58% | 88% | – | 58% | 100% | 76% | – |
| Cc1ccc(P(=C[P+](c2ccccc2)(c2ccccc2)c2ccccc2)(c2ccccc2)c2ccccc2)cc1 | – | – | – | 31% | 59% | 67% | inhibition in vivo at 0.1 % [7]: 67% |
| Cc1ccc([P+](C[P+](c2ccccc2)(c2ccccc2)c2ccccc2)(c2ccccc2)c2ccccc2)cc1 [P,P,P,P',P'-Pentaphenyl P'-p-tolyl-P,P' Methylenediphosphonium Dibromide] | – | 60% | 57% | 64% | 80% | 77% | – |
| c1ccc(C[P+](C[P+](Cc2ccccc2)(c2ccccc2)c2ccccc2)(c2ccccc2)c2ccccc2)cc1 [Type I, R1 Benzyl, X Br, Methylenebis(benzyldiphenyl)phosphonium Dibromide] | – | – | – | 79% | 73% | 80% | – |
| c1ccc(CC(=P(c2ccccc2)(c2ccccc2)c2ccccc2)[P+](c2ccccc2)(c2ccccc2)c2ccccc2)cc1 [Type II, R2 Benzyl, X Br] | 89% | 96% | 72% | 100% | 100% | – | – |
| C=CCC(=P(c1ccccc1)(c1ccccc1)c1ccccc1)[P+](c1ccccc1)(c1ccccc1)c1ccccc1 [Type II, R2 Allyl, X Br] | 33% | 100% | 86% | 100% | – | – | inhibition in vivo at 10 mg/kg [4]: 60% |
| Cc1ccc(P(=C[P+](c2ccccc2)(c2ccccc2)c2ccc(C)cc2)(c2ccccc2)c2ccccc2)cc1 [Type II, R1 p-tolyl, X Br] | – | – | – | 36% | – | 89% | inhibition in vivo at 0.1 % [7]: 53% |
| CCCCCCC(=P(c1ccccc1)(c1ccccc1)c1ccccc1)[P+](c1ccccc1)(c1ccccc1)c1ccccc1 [Type II, R2 n-Hexyl, X Br] | 79% | 100% | 39% | 61% | – | 94% | inhibition in vivo at 0.006 % [1]: 58% |
| Cc1ccc([P+](C[P+](c2ccccc2)(c2ccccc2)c2ccc(C)cc2)(c2ccccc2)c2ccccc2)cc1 [Type I, R1 p-tolyl, X Br, Methylenebis(diphenyl-p-tolyl) Phosphonium Dibromide] | – | – | – | 57% | – | 75% | inhibition in vivo at 0.1 % [7]: 57% |
| C(=P(c1ccccc1)(c1ccccc1)c1ccccc1)[P+](c1ccccc1)(c1ccccc1)c1ccccc1.[Cl-] [Type II, R1 Phenyl, X Cl, Triphenyl[(triphenylphosphoranylidene)methyl]-phosphonium Chloride] | – | – | 96% | – | – | – | % Efficacy N.d. [8]: 91%; % Efficacy N.d. [9]: 100%; % Efficacy N.d. (single oral dose, 10 mg/kg): 51% |
| CC(=P(c1ccccc1)(c1ccccc1)c1ccccc1)[P+](c1ccccc1)(c1ccccc1)c1ccccc1 [Type II, R2 Methyl, X I, Triphenyl[1-(triphenylphosphoranylidene)ethyl]-phosphonium Iodide] | 99% | – | 98% | – | – | – | inhibition in vivo at 0.003 % [7]: 57%; inhibition in vivo at 0.006 % [1]: 98%; inhibition in vivo at 5 mg/kg [10]: 65%; inhibition in vivo at 10 mg/kg [4]: 96%; inhibition in vivo at 5 mg/kg (Heligmosomoides polygyrus, sc, subcutaneous, 5 mg/kg, read-out: % Efficacy N.d.): 80%; inhibition in vivo at 10 mg/kg [11]: 95%; inhibition in vivo at 25 mg/kg [12]: 100% |
| IC(=P(c1ccccc1)(c1ccccc1)c1ccccc1)[P+](c1ccccc1)(c1ccccc1)c1ccccc1 [Type II, R2 I, X I] | 98% | 100% | – | 70% | – | – | inhibition in vivo at 0.006 % [1]: 54% |
| C(=P(c1ccccc1)(c1ccccc1)c1ccccc1)[P+](c1ccccc1)(c1ccccc1)c1ccccc1.[Br-] [Type II, R1 Phenyl, X Br, Triphenyl[(triphenylphosphoranylidene)methyl]-phosphonium Bromide] | – | – | – | – | – | – | inhibition in vivo at 5 mg/kg [10]: 32.5%; inhibition in vivo at 10 mg/kg [4]: 65%; inhibition in vivo at 10 mg/kg [11]: 74%; inhibition in vivo at 25 mg/kg [12]: 94%; % Efficacy N.d. [8]: 94%; % Efficacy N.d. [9]: 100%; % Efficacy N.d. (single oral dose, 25 mg/kg): 89% |
| C(=P(c1ccccc1)(c1ccccc1)c1ccccc1)[P+](c1ccccc1)(c1ccccc1)c1ccccc1.[I-] [Type II, R1 Phenyl, X I, Triphenyl[(triphenylphosphoranylidene)methyl]-phosphonium Iodide] | – | – | – | – | – | – | % Efficacy N.d. [8]: 89%; % Efficacy N.d. [9]: 100%; % Efficacy N.d. (single oral dose, 5 mg/kg): 26%; % Efficacy N.d. (single oral dose, 10 mg/kg): 67%; % Efficacy N.d. (single oral dose, 25 mg/kg): 91% |
| C(=P(c1ccccc1)(c1ccccc1)c1ccccc1)[P+](c1ccccc1)(c1ccccc1)c1ccccc1 [Type II, R1 Phenyl, X Br^-.CuBr2] | – | 100% | – | – | – | – | inhibition in vivo at 10 mg/kg (Heligmosomoides polygyrus, po, single oral dose, 10 mg/kg, dosage weight is that of the cation, read-out: % Efficacy N.d.): 43%; inhibition in vivo at 25 mg/kg (Heligmosomoides polygyrus, po, single oral dose, 25 mg/kg, dosage weight is that of the cation, read-out: % Efficacy N.d.): 76%; % Efficacy N.d. [9]: 51% |
| c1ccc([P+](C[P+](c2ccccc2)(c2ccccc2)c2ccccc2)(c2ccccc2)c2ccccc2)cc1 [Type I, R1 Phenyl, X Br, Methylenebis Triphenylphosphonium Dibromide] | – | 100% | – | – | – | – | inhibition in vivo at 0.125 % (Heligmosomoides polygyrus, po, 168 h, drug diet, 0.125 % diet, 7 days, read-out: % Efficacy N.d.): 94%; inhibition in vivo at 10 mg/kg [11]: 42%; inhibition in vivo at 25 mg/kg [12]: 84%; % Efficacy N.d. [8]: 78%; % Efficacy N.d. (single oral dose, 5 mg/kg): 49%; % Efficacy N.d. (single oral dose, 10 mg/kg): 51.5%; % Efficacy N.d. (single oral dose, 25 mg/kg): 95.5% |
